Experiments:
TNBS induced colitis [1] = experiment: Trinitrobenzenesulfonic acid (TNBS) Induced Colitis, mice; type: in vivo, Balb/c female mice; settings: mouse
Source text: In Vivo Model: Trinitrobenzenesulfonic acid (TNBS) Induced Colitis
The TNBS model of experimental colitis (Bobin-Dubigeon, C., Collin, X., Grimaud, N., Robert, J-M., Guillaume Le Baut, G., and Petit, J-Y. Effects of tumour necrosis factor-a synthesis inhibitors on rat trinitrobenzene sulphonic acid-induced chronic colitis. Eur. J. Pharmacology, 431: 103-110, 2001), is characterized by shrinkage of the colon, intraperitoneal serosal adhesions, severe wounding and inflammatory damage, diarrhea, a continuous pattern of mucosal epithelial damage in the distal colon with infiltration of inflammatory cells. These symptomatic signs in the above—mentioned models are similar to what occur in human colitis.
Male Wistar rats (200-250 g) are inoculated with 500 microliters of a solution of 10 to 20 mg of TNBS in 30% ethanol delivered intracolonically via catheter or ball-tipped gavage needle to the 8th cm from the anus. When Balb/c female mice (8-12 weeks of age) were used, the inoculation volume was 50 microliters containing 2-3 mg of TNBS in 30% ethanol delivered intracolonically via catheter or ball-tipped gavage needle to the 4th cm from the anus. During the ensuing 7 days, test animals were administered a preparation of an experimental compound. This material may be administered orally, subcutaenously or intraperitoneally, once or twice daily. […] Among the parameters analyzed were the length of the colon starting from the anus to the top of the cecum, the weight of the colon, the consistency of any stools found within the colon, the presence or absence of intraperitoneal adhesions on the serosal surfacr of the intestin, and the gross macroscopic appearance of the colon. The latter is scored for length and severity of inlfammatory damage using a 10 point score. […]
Histological analyses of tissues consisted of staining paraffin-embedded tissue sections with hematoxylin-eosin dye. Epithelial damage scores were determined as the fraction of the tissue section showing damaged epithelium. Scores were determined as follows: 0=no damage; 1=<⅓ damaged, 2=⅓ to <⅔ damaged, 3=>⅔ damaged. […]

TNBS induced colitis [2] = experiment: Trinitrobenzenesulfonic acid (TNBS) Induced Colitis, rats; type: in vivo, Male Wistar rats; settings: rat
Source text: In Vivo Model: Trinitrobenzenesulfonic acid (TNBS) Induced Colitis The TNBS model of experimental colitis (Bobin-Dubigeon, C., Collin, X., Grimaud, N., Robert, J-M., Guillaume Le Baut, G., and Petit, J-Y. Effects of tumour necrosis factor-a synthesis inhibitors on rat trinitrobenzene sulphonic acid-induced chronic colitis. Eur. J. […] These symptomatic signs in the above—mentioned models are similar to what occur in human colitis. Male Wistar rats (200-250 g) are inoculated with 500 microliters of a solution of 10 to 20 mg of TNBS in 30% ethanol delivered intracolonically via catheter or ball-tipped gavage needle to the 8th cm from the anus. When Balb/c female mice (8-12 weeks of age) were used, the inoculation volume was 50 microliters containing 2-3 mg of TNBS in 30% ethanol delivered intracolonically via catheter or ball-tipped gavage needle to the 4th cm from the anus. During the ensuing 7 days, test animals were administered a preparation of an experimental compound. This material may be administered orally, subcutaenously or intraperitoneally, once or twice daily. At the end of this period, the animals were euthanized and their colons were collected for further analysis. Among the parameters analyzed were the length of the colon starting from the anus to the top of the cecum, the weight of the colon, the consistency of any stools found within the colon, the presence or absence of intraperitoneal adhesions on the serosal surfacr of the intestin, and the gross macroscopic appearance of the colon. […] In rats, the distal colon between the 5th and the 8th centimeter is dissected and placed in 10% neutral buffered formalin for later histological analysis. In mice, the 1st to the 4th cm was collected for histological analyses. For the following parameters—colon length, colon weight, stool consistency and appearance and macroscopic damage—a scoring system was used to describe the changes. The four scores for each animal were added to provide a Total Score. […] For the presence of blood in stool, one point was added to scores <3. […] Histological analyses of tissues consisted of staining paraffin-embedded tissue sections with hematoxylin-eosin dye. Epithelial damage scores were determined as the fraction of the tissue section showing damaged epithelium. […] Statistic analyses for these experiments performed with Graphpad Prism 4.0, using ANOVA, with Dunnets or Bonferroni's multiple comparisons test.

**Q.** How did the “% Inhibition of Total Macroscopic Score” value (TNBS induced colitis [1]; 10 mg/kg sc bid) turn out when `COc1cnn(C)c(=O)c1-c1ccc(C[C@H](NC(=O)c2c(Cl)cccc2Cl)C(=O)O)cc1` [Cpd 17] was run?
**A.** 21.30%

**Q.** And the “% Inhibition of Total Macroscopic Score” value (TNBS induced colitis [1]; 30 mg/kg sc bid)?
**A.** 25.5%

**Q.** And the “% Inhibition of Total Macroscopic Score” value (TNBS induced colitis [1]; 60 mg/kg sc bid)?
**A.** −17%

**Q.** And the “% Inhibition of Epithelial Damage Score” value (TNBS induced colitis [2]; 10 mg/kg sc bid)?
**A.** −5.822%

**Q.** And the “% Inhibition of Total Macroscopic Score” value (TNBS induced colitis [2]; 10 mg/kg sc bid)?
**A.** −1.638%

**Q.** What about the “% Inhibition of Epithelial Damage Score” value (TNBS induced colitis [2]; 30 mg/kg sc bid) of the same molecule?
**A.** 8.5%

**Q.** And the “% Inhibition of Total Macroscopic Score” value (TNBS induced colitis [2]; 30 mg/kg sc bid)?
**A.** −4.117%

Reference: patent US20050192279A1, “Pyridazinones as antagonists of alpha4 integrins” (priority 2004, published 2005)
